Data published in paper PMC6213970, “Identification of Enolase as the Target of 2-Aminothiazoles in Mycobacterium tuberculosis” (Frontiers in Microbiology, 2018).

Target: T1, human α-enolase (Homo sapiens, UniProt P06733)
T1 construct: gene ENO1; commercial enzyme (Sigma)
Assay: pyruvate kinase-luciferase coupled assay (luminescence)
Type: biochemical
Details: 100 μM compound; 2-PG 0.2 mM (figure legend) or 0.5 mM (methods); 1 mM ADP, 10 mM MgSO4, 50 mM HEPES pH 7.0, 37°C, 1% DMSO

T1 sequence (P06733 2-434): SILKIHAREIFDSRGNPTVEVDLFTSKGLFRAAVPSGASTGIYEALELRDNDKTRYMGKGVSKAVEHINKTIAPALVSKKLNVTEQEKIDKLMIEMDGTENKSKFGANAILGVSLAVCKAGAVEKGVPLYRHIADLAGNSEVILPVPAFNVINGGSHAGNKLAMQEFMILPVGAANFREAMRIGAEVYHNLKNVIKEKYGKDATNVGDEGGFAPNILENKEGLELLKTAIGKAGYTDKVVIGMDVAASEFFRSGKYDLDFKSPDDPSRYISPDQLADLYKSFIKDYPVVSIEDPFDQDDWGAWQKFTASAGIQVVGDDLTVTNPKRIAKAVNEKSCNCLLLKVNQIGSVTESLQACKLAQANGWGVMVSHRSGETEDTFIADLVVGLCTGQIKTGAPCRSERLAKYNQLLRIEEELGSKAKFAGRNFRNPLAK

Q: IDR-0106963 was tested. Which “% inhibition at 100 μM” value did it give?
A: > 90%
